We go through 21 molecules from patent US8846951B2 (AbbVie Inc., priority 2009, dated 2014).

Where two headings read alike, the source gives them in different places.

Assay [1] concerns the target T1, 5HT2B receptors (Homo sapiens, UniProt P41595).
T1 construct: expressed in transfected cells; host or cells: CHO-K1 cells
Put plainly: Human 5-HT2B functional high throughput screening assay in CHO-K1 cells (calcium flux). The conditions noted are these: for EC50: CHO-K1 cells, calcium flux. The format is cell-based. Put shortly:
(§1)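 Serum-starved CHO-K1 cells carrying the receptor; Ca4 dye, 60 min RT. Test compound added after a 10 s baseline, fluorescence followed for 3 min. EC50 from 4-parameter fit; Emax given as % of serotonin effect.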
For orientation: Calcium assays in cells follow changes in intracellular calcium, usually with a dye or a luminescent sensor.

For assay [2], the target named is T2, 5HT2C receptors (Homo sapiens, UniProt P28335).
T2 sequence (P28335 33-458): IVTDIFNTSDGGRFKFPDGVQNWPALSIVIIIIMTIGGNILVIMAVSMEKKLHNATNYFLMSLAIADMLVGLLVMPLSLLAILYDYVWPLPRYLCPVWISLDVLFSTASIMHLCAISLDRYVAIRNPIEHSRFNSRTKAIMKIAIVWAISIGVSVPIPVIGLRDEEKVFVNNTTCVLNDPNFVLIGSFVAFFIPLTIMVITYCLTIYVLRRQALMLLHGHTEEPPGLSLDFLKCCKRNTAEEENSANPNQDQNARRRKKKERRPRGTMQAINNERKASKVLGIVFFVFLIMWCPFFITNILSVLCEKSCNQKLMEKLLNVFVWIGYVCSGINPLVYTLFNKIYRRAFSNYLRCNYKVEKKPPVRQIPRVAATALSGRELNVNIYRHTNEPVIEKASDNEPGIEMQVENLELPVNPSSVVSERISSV
Description: Human 5-HT2C functional high throughput screening assay in CHO-K1 cells (calcium flux). In kind it is cell-based. Also noted: expressed in transfected cells; host or cells: CHO-K1 cells. The following applies: for EC50: CHO-K1 cells, calcium flux; for Emax: CHO-K1, 5-HT2C, maximum functional response as percentage relative to the effect of serotonin. A digest of the protocol: as §1

Where [3] appears, read: 5-HT2B agonist activity, read-out: EC50.
Where [4] appears, read: 5-HT2B, maximum functional response as percentage relative to the effect of serotonin.
Where [5] appears, read: 5-HT2C agonist activity, read-out: EC50.

T1 sequence (P41595 whole entry): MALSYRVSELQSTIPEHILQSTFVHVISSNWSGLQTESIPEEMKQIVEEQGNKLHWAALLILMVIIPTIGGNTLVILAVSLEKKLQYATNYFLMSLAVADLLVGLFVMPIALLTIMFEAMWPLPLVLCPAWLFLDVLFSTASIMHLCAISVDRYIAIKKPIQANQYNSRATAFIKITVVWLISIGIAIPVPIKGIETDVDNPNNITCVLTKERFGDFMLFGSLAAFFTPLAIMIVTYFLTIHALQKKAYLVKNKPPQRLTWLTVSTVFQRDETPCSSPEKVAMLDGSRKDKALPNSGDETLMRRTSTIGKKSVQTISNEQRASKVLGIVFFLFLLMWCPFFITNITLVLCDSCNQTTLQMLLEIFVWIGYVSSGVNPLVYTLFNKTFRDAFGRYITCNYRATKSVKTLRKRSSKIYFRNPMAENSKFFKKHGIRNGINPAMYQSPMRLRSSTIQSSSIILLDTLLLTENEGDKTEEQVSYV

As for `CNC(=O)c1cccc(-c2ccc3c(c2)C(=O)NC[C@@H]2CNC[C@@H]32)c1` (relative stereo) [Example 381, N-Methyl-3-[trans-6-oxo-1,2,3,3a,4,5,6,10b-octahydropyrrolo[3,4-d][2]benzazepin-8-yl]benzamide], the EC50 (usually the midpoint of the concentration-response curve) is greater than 10 µM in assay [1] (setting [3]) and 10 nM in assay [2] (setting [5]). For the same molecule, the Emax (usually the maximal effect, on the per cent scale that the assay sets) in assay [1] (setting [4]) is “inactive”; in assay [2] (read-out: Emax), 105%.

As for `O=C1NC[C@@H]2CNC[C@H]2c2ccc(OCc3c(F)cccc3F)cc21` (relative stereo) [Example 168, Trans-8-(2,6-difluorobenzyloxy)-1,2,3,3a,4,5-hexahydrobenzo[e]pyrrolo[3,4-c]azepin-6(10bH)-one], the EC50 in assay [1] (setting [3]) was greater than 10 µM; in assay [2] (setting [5]), 1 nM. The Emax result in assay [1] (setting [4]) is “inactive”; in assay [2] (read-out: Emax), greater than 120%.

For `O=C1NC[C@@H]2CN(Cc3ccccc3)C[C@H]2c2cnccc21` (relative stereo) [Example 152, Trans-2-benzyl-1,2,3,3a,4,5-hexahydropyrido[3,4-e]pyrrolo[3,4-c]azepin-6(10bH)-one], the EC50 in assay [1] (setting [3]) is greater than 10 µM; in assay [2] (setting [5]) it was 2000 nM. Besides, the Emax result in assay [1] (setting [4]) was “inactive”; in assay [2] it was 50%.

With `COc1ccc2c(c1)[C@H]1CN(Cc3ccccc3)C[C@@H]1CCC2=O` (relative stereo) [Example 261, Trans-2-benzyl-9-methoxy-2,3,3a,4,5,10b-hexahydrobenzo[3,4]cyclohepta[1,2-c]pyrrol-6(1H)-one], the values for the EC50 in assay [1] (setting [3]) and in assay [2] (setting [5]) were greater than 10 µM and 40 nM, respectively. Moreover, the values for the Emax entry in assay [1] (setting [4]) and in assay [2] (read-out: Emax) were “inactive” and greater than 120%, respectively.

Consider `Clc1ccc2c(c1)[C@@H]1CNC[C@H]1CCN2` (relative stereo) [Example 391, Trans-9-chloro-1,2,3,3a,4,5,6,10b-octahydropyrrolo[3,4-d][1]benzazepine], for which the maximal effect (Emax) in assay [1] (CHO-K1) amounted to 70%; in assay [2], 90%. Besides, the concentration for a half-maximal effect (EC50) in assay [1] (EC50, 5-HT2B agonist activity) was 0.02 µM; in assay [2] (EC50, 5-HT2C agonist activity), 90 nM.

As to `COc1cccc(-c2ccc3c(c2)C(=O)NC[C@@H]2CN(C)C[C@@H]32)c1` [Example 161, (3aR,10bR)-8-(3-Methoxyphenyl)-2-methyl-1,2,3,3a,4,5-hexahydrobenzo[e]pyrrolo[3,4-c]azepin-6(10bH)-one], in assay [1] (setting [3]), the EC50 is greater than 10 µM. The Emax entry was “inactive” in assay [1] (setting [4]) and 110% in assay [2] (read-out: Emax).

For the molecule `CN1C[C@H]2CNC(=O)c3cc(C=Cc4ccccc4)ccc3[C@@H]2C1` (relative stereo) [Example 85, Trans-2-methyl-8-styryl-1,2,3,3a,4,5-hexahydrobenzo[e]pyrrolo[3,4-c]azepin-6(10bH)-one], the values for the EC50 in assay [1] (setting [3]) and in assay [2] (setting [5]) were greater than 10 µM and 121 nM, respectively. Further, the Emax result in assay [1] (setting [4]) was “inactive”; in assay [2] (read-out: Emax), 100%.

On to `CN1C[C@@H]2CNC[C@H]2c2ccc(F)cc2C1=O` (relative stereo) [Example 224, Trans-8-fluoro-5-methyl-1,2,3,3a,4,5-hexahydrobenzo[c]pyrrolo[3,4-e]azepin-6(10bH)-one], for which the Emax in assay [1] (CHO-K1) was 45%; in assay [2], greater than 120%. Further, the EC50 in assay [1] (EC50, 5-HT2B agonist activity) stood at 6 µM.

As for `CN1C[C@H]2CNC(=O)c3cc(C4=CCCC4)ccc3[C@@H]2C1` (relative stereo) [Example 201, Trans-8-cyclopentenyl-2-methyl-1,2,3,3a,4,5-hexahydrobenzo[e]pyrrolo[3,4-c]azepin-6(10bH)-one], the maximal response (Emax) result in assay [1] (setting [4]) was “inactive”; in assay [2] it was 120%. Also, the EC50 was greater than 10 µM in assay [1] (EC50, 5-HT2B agonist activity) and 100 nM in assay [2] (EC50, 5-HT2C agonist activity).

With `CN1C[C@H]2CNC(=O)c3cc(-c4ccc5c(c4)C(=O)CC5)ccc3[C@@H]2C1` (relative stereo) [Example 251, Trans-2-methyl-8-(3-oxo-2,3-dihydro-1H-inden-5-yl)-1,2,3,3a,4,5-hexahydrobenzo[c]pyrrolo[3,4-e]azepin-6(10bH)-one], the EC50 was greater than 10 µM in assay [1] (setting [3]) and 400 nM in assay [2] (setting [5]). For the same molecule, the maximum response (Emax) entry is “inactive” in assay [1] (setting [4]) and greater than 120% in assay [2] (read-out: Emax).

As to `CNC(=O)c1ccc(-c2cccc3c2OCC[C@H]2CNC[C@H]32)cc1` (relative stereo) [Example 371, 4-[Trans-2,3,3a,4,5,10b-hexahydro-1H-[1]benzoxepino[4,5-c]pyrrol-7-yl]-N-methylbenzamide], the values for the EC50 in assay [1] (setting [3]) and in assay [2] (setting [5]) were greater than 10 µM and 600 nM, respectively. Further, the maximal response (Emax) result is “inactive” in assay [1] (setting [4]) and 95% in assay [2] (read-out: Emax).

For the molecule `COc1ccc2c(c1)C(=O)N(C)C[C@@H]1CN(C)C[C@@H]21` (relative stereo) [Example 190, Trans-8-methoxy-2,5-dimethyl-1,2,3,3a,4,5-hexahydrobenzo[e]pyrrolo[3,4-c]azepin-6(10bH)-one], the Emax result is “inactive” in assay [1] (setting [4]) and greater than 120% in assay [2]. The 50% effective concentration (EC50) was greater than 10 µM in assay [1] (EC50, 5-HT2B agonist activity) and 100 nM in assay [2] (EC50, 5-HT2C agonist activity).

`CN1C[C@H]2CCN(C)c3ccccc3[C@@H]2C1` (relative stereo) [Example 330, Trans-2,6-dimethyl-1,2,3,3a,4,5,6,10b-octahydropyrrolo[3,4-d][1]benzazepine]: the Emax in assay [1] (CHO-K1) came out at 30%; in assay [2], 90%. Also, the 50% effective concentration (EC50) in assay [1] (EC50, 5-HT2B agonist activity) turned out to be 0.3 µM; in assay [2] (EC50, 5-HT2C agonist activity), 70 nM.

As for `COC(=O)c1cccc2c1NCC[C@@H]1CNC[C@@H]21` (relative stereo) [Example 402, Methyl trans-1,2,3,3a,4,5,6,10b-octahydropyrrolo[3,4-d][1]benzazepine-7-carboxylate], the maximal effect (Emax) in assay [1] (CHO-K1) amounted to 75%; in assay [2], 100%. Further, the EC50 turned out to be 0.2 µM in assay [1] (EC50, 5-HT2B agonist activity) and 30 nM in assay [2] (EC50, 5-HT2C agonist activity).

As for `O=C1NC[C@@H]2CNC[C@H]2c2ccc(-c3c(F)cccc3F)cc21` (relative stereo) [Example 276, Trans-8-(2,6-difluorophenyl)-1,2,3,3a,4,5-hexahydrobenzo[e]pyrrolo[3,4-c]azepin-6(10bH)-one], the concentration for a half-maximal effect (EC50) in assay [1] (setting [3]) was greater than 10 µM; in assay [2] (setting [5]), 8 nM. The Emax result was “inactive” in assay [1] (setting [4]) and greater than 120% in assay [2] (read-out: Emax).

In the case of `Fc1ccc(-c2cccc3c2NCC[C@@H]2CNC[C@@H]32)cc1` (relative stereo) [Example 401, Trans-7-(4-fluorophenyl)-1,2,3,3a,4,5,6,10b-octahydropyrrolo[3,4-d][1]benzazepine], the EC50 in assay [1] (setting [3]) is greater than 10 µM; in assay [2] (setting [5]) it was 800 nM. Also, the maximal response (Emax) result is “inactive” in assay [1] (setting [4]) and 70% in assay [2] (read-out: Emax).

With `CN1C[C@H]2CNC(=O)c3cc(-c4ccc(S(C)(=O)=O)cc4)ccc3[C@@H]2C1` (relative stereo) [Example 83, Trans-2-methyl-8-(4-(methylsulfonyl)phenyl)-1,2,3,3a,4,5-hexahydrobenzo[e]pyrrolo[3,4-c]azepin-6(10bH)-one], the EC50 in assay [1] (setting [3]) was greater than 10 µM; in assay [2] (setting [5]) it was 200 nM. For the same molecule, the figures for the maximal effect (Emax) result in assay [1] (setting [4]) and in assay [2] (read-out: Emax) were “inactive” and greater than 120%, respectively.

As to `O=S(=O)(c1ccc(C(F)(F)F)cc1)N1Cc2cccnc2[C@@H]2CNC[C@H]2C1` (relative stereo) [Example 347, Trans-6-{[4-(trifluoromethyl)phenyl]sulfonyl}-5,6,7,7a,8,9,10,10a-octahydropyrido[3,2-c]pyrrolo[3,4-e]azepine], the 50% effective concentration (EC50) in assay [1] (setting [3]) is greater than 10 µM; in assay [2] (setting [5]), 90 nM. Further, the Emax entry in assay [1] (setting [4]) is “inactive”; in assay [2] (read-out: Emax), 90%.

With `CN1C[C@H]2CNC(=O)c3cc(-c4cccc(F)c4)ccc3[C@@H]2C1` (relative stereo) [Example 76, Trans-8-(3-fluorophenyl)-2-methyl-1,2,3,3a,4,5-hexahydrobenzo[e]pyrrolo[3,4-c]azepin-6(10bH)-one], the values for the EC50 in assay [1] (setting [3]) and in assay [2] (setting [5]) were greater than 10 µM and 11 nM, respectively. For the same molecule, the Emax result is “inactive” in assay [1] (setting [4]) and greater than 120% in assay [2] (read-out: Emax).

For the molecule `COc1ccc(C(C)C)cc1-c1ccc2c(c1)C(=O)NC[C@@H]1CN(C)C[C@@H]21` (relative stereo) [Example 301, Trans-8-(5-isopropyl-2-methoxyphenyl)-2-methyl-2,3,3a,4,5,10b-hexahydropyrrolo[3,4-d][2]benzazepin-6(1H)-one], the concentration giving a half-maximal response (EC50) was greater than 10 µM in assay [1] (setting [3]) and 30 nM in assay [2] (setting [5]). In addition, the Emax result was “inactive” in assay [1] (setting [4]) and 105% in assay [2] (read-out: Emax).

In the case of `Fc1ccc2c(c1)[C@@H]1CNC[C@@H]1CCO2` (relative stereo) [Example 284, Cis-9-fluoro-2,3,3a,4,5,10b-hexahydro-1H-[1]benzoxepino[4,5-c]pyrrole], the values for the maximal response (Emax) in assay [1] (CHO-K1) and in assay [2] were 55% and 85%, respectively. Besides, the EC50 in assay [1] (EC50, 5-HT2B agonist activity) stood at 0.01 µM; in assay [2] (EC50, 5-HT2C agonist activity) it was 400 nM.
